Source: patent US20060046988A1, “Methoprene formulations for the control of tick infestations” (priority 2004, published 2006)
Like-named read-outs stand apart in the source and are kept apart here.

System: Boophilus microplus
Assay: In vitro immersion of engorged female ticks in (S)-methoprene: egg laying, egg weight, hatching
Conditions: for Eggs Viable / Eggs Weight / Number of Ticks Laying Eggs (Day 14): 10 ticks treated; for Eggs Hatch (%): eggs incubated another 4 weeks; for Total Egg Mass / Total Viable Egg Mass / Total Number of Ticks Laying Eggs: both replicates; for Total Number of Ticks Laying Eggs: 20 ticks treated; for Percent Reduction in Egg Mass per Tick / Percent Reduction in Number of Ticks Laying Eggs / Percent Reduction in Total Egg Mass / inhibition at 100 ppm / inhibition at 1000 ppm / inhibition at 10000 ppm / inhibition at 100000 ppm: vs 0 ppm; for inhibition at 100 ppm / inhibition at 1000 ppm / inhibition at 10000 ppm / inhibition at 100000 ppm: Rhipicephalus microplus
Text: Engorged female ticks were separated into groups of 10, weighed and placed in small containers. Group assignments were adjusted so that the total weight of ticks in each group was similar. Each container of 10 ticks was then randomly assigned to one of the five treatment groups, with two replicates per group. Each replicate of ten female ticks each was then immersed in a solution of (S)-methoprene at a concentration of 0, 100, 1000, 10000 and 100000 ppm of (S)-methoprene diluted in acetone:water (40:60 vN). The ticks were maintained immersed in a treatment for 2 minutes.
After exposure, ticks were removed and dried in a pad prepared with paper towels. Each group was then placed into a clean container identified with the treatment group and incubated for 2 weeks at approximately 27° Celsius and 60% or higher relative humidity to determine the proportion of egg laying females. Eggs laid were weighed and incubated for another 4-week period for hatching observation.

With `COC(C)(C)CCC[C@H](C)C/C=C/C(C)=C/C(=O)OC(C)C` [(S)-methoprene] the “Egg Mass per Tick” value (100 ppm) was 0.173 g, the “Viable Egg Mass per Tick” value (100 ppm) was 0.173 g and the “Eggs Viable” value (100 ppm, Replicate A) was 1.38 g. For the same compound, the “Eggs Weight” value (100 ppm, Replicate A) was 1.38 g, the “Number of Ticks Laying Eggs (Day 14)” value (100 ppm, Replicate A) was 9 and the “Eggs Hatch (%)” value (100 ppm, Replicate A) was 100%. For the same compound, the “Eggs Viable” value (100 ppm, Replicate B) was 1.39 g, the “Eggs Weight” value (100 ppm, Replicate B) was 1.39 g and the “Number of Ticks Laying Eggs (Day 14)” value (100 ppm, Replicate B) was 7. For the same compound, the “Eggs Hatch (%)” value (100 ppm, Replicate B) was 100%, the “Total Egg Mass” value (100 ppm) was 2.77 g and the “Total Viable Egg Mass” value (100 ppm) was 2.77 g. The “Total Number of Ticks Laying Eggs” value (100 ppm) was 16, the “Percent Reduction in Egg Mass per Tick” value (100 ppm) was 1% and the “Percent Reduction in Number of Ticks Laying Eggs” value (from here on “Percent Reduction in Number”) (100 ppm) was 20%. The “Percent Reduction in Total Egg Mass” value (100 ppm) was 21%, the “Egg Mass per Tick” value (1,000 ppm) was 0.152 g and the “Viable Egg Mass per Tick” value (1,000 ppm) was 0.022 g. The “Eggs Viable” value (1,000 ppm, Replicate A) was 0.09 g, the “Eggs Weight” value (1,000 ppm, Replicate A) was 0.47 g and the “Number of Ticks Laying Eggs (Day 14)” value (1,000 ppm, Replicate A) was 3. The “Eggs Hatch (%)” value (1,000 ppm, Replicate A) was 20%, the “Eggs Viable” value (1,000 ppm, Replicate B) was 0.04 g and the “Eggs Weight” value (1,000 ppm, Replicate B) was 0.44 g. The “Number of Ticks Laying Eggs (Day 14)” value (1,000 ppm, Replicate B) was 3, the “Eggs Hatch (%)” value (1,000 ppm, Replicate B) was 10% and the “Total Egg Mass” value (1,000 ppm) was 0.91 g. For the same compound, the “Total Viable Egg Mass” value (1,000 ppm) was 0.13 g, the “Total Number of Ticks Laying Eggs” value (1,000 ppm) was 6 and the “Percent Reduction in Egg Mass per Tick” value (1,000 ppm) was 13%. For the same compound, the “Percent Reduction in Number” value (1,000 ppm) was 70%, the “Percent Reduction in Total Egg Mass” value (1,000 ppm) was 74% and the “Egg Mass per Tick” value (10,000 ppm) was 0.134 g. For the same compound, the “Viable Egg Mass per Tick” value (10,000 ppm) was 0 g, the “Eggs Viable” value (10,000 ppm, Replicate A) was 0 g and the “Eggs Weight” value (10,000 ppm, Replicate A) was 1.22 g. For the same compound, the “Number of Ticks Laying Eggs (Day 14)” value (10,000 ppm, Replicate A) was 9, the “Eggs Hatch (%)” value (10,000 ppm, Replicate A) was 0% and the “Eggs Viable” value (10,000 ppm, Replicate B) was 0 g. For the same compound, the “Eggs Weight” value (10,000 ppm, Replicate B) was 0.92 g, the “Number of Ticks Laying Eggs (Day 14)” value (10,000 ppm, Replicate B) was 7 and the “Eggs Hatch (%)” value (10,000 ppm, Replicate B) was 0%. For the same compound, the “Total Egg Mass” value (10,000 ppm) was 2.14 g, the “Total Viable Egg Mass” value (10,000 ppm) was 0 g and the “Total Number of Ticks Laying Eggs” value (10,000 ppm) was 16. The “Percent Reduction in Egg Mass per Tick” value (10,000 ppm) was 23%, the “Percent Reduction in Number” value (10,000 ppm) was 20% and the “Percent Reduction in Total Egg Mass” value (10,000 ppm) was 39%. For the same compound, the “Egg Mass per Tick” value (100,000 ppm) was 0.125 g, the “Viable Egg Mass per Tick” value (100,000 ppm) was 0 g and the “Eggs Viable” value (100,000 ppm, Replicate A) was 0 g. The “Eggs Weight” value (100,000 ppm, Replicate A) was 0.58 g, the “Number of Ticks Laying Eggs (Day 14)” value (100,000 ppm, Replicate A) was 4 and the “Eggs Hatch (%)” value (100,000 ppm, Replicate A) was 0%. The “Eggs Viable” value (100,000 ppm, Replicate B) was 0 g, the “Eggs Weight” value (100,000 ppm, Replicate B) was 0.42 g and the “Number of Ticks Laying Eggs (Day 14)” value (100,000 ppm, Replicate B) was 4. The “Eggs Hatch (%)” value (100,000 ppm, Replicate B) was 0%, the “Total Egg Mass” value (100,000 ppm) was 1.00 g and the “Total Viable Egg Mass” value (100,000 ppm) was 0 g. For the same compound, the “Total Number of Ticks Laying Eggs” value (100,000 ppm) was 8, the “Percent Reduction in Egg Mass per Tick” value (100,000 ppm) was 29% and the “Percent Reduction in Number” value (100,000 ppm) was 60%. The “Percent Reduction in Total Egg Mass” value (100,000 ppm) was 71%, the inhibition at 100 ppm (100 ppm, read-out: Percent Reduction in Viable Egg Mass) was 21% and the inhibition at 100 ppm (100 ppm, read-out: Percent Reduction in Viable Egg Mass per Tick) was 1%. The inhibition at 1000 ppm (1,000 ppm, read-out: Percent Reduction in Viable Egg Mass) was 96%, the inhibition at 1000 ppm (1,000 ppm, read-out: Percent Reduction in Viable Egg Mass per Tick) was 87% and the inhibition at 10000 ppm (10,000 ppm, read-out: Percent Reduction in Viable Egg Mass) was 100%. For the same compound, the inhibition at 10000 ppm (10,000 ppm, read-out: Percent Reduction in Viable Egg Mass per Tick) was 100%, the inhibition at 100000 ppm (100,000 ppm, read-out: Percent Reduction in Viable Egg Mass) was 100% and the inhibition at 100000 ppm (100,000 ppm, read-out: Percent Reduction in Viable Egg Mass per Tick) was 100%. For the same compound, the egg laying (all treatment groups (100 to 100000 ppm)) was “Eggs were laid”, the egg viability (concentrations at and above 10,000 ppm) was “completely inhibited” and the egg hatching (concentrations of 10,000 ppm and above) was “did not hatch”.
